Test results from patent US8119805B2, “Substituted disulfonamide compounds” (Gruenenthal GmbH, priority 2008, dated 2012).
Structures can show the parent of a compound that is named as a salt.

Columns and labels:
[1] = biological target: T1, B1R receptor of the rat (rB1R) (Rattus norvegicus, UniProt P97583); assay: Functional investigation on the bradykinin 1 receptor (B1R), FLIPR Ca2+ assay, rB1R cells; assay type: cell-based; conditions: test substance 10 μM; CHO K1 cells transfected with rat B1R gene; Fluo-4 Ca2+ signal; agonist Des-Arg9-bradykinin at EC80; % of maximum achievable inhibition; read-out: B1R antagonism, rat [10 μM] % inhibition
T1 construct: expressed in transfected cells; host or cells: CHO K1 cells
T1 sequence (P97583 1-337): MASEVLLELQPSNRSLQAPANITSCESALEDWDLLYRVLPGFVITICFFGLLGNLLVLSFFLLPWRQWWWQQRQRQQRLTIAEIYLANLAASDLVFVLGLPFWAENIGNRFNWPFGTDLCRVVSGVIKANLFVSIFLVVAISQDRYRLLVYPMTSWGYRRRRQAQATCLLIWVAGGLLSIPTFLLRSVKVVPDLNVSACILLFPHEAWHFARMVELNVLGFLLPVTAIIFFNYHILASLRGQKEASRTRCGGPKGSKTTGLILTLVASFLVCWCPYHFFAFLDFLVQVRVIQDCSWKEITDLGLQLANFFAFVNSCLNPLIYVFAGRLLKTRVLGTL
Summary of the method: (§1)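 CHO K1 cells stably expressing human or rat B1R, Fluo-4 loaded, read by FLIPR (λex 488, λem 540 nm). Test compound (10 μM) first gave % activation against Lys-Des-[MUT]-bradykinin ≥50 nM (hB1R) or Des-[MUT]-bradykinin 10 μM (rB1R). After 10–20 min, agonist at EC80 was added; % inhibition or IC50 from concentration series, n=2–3, N≥2.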

[2] = biological target: T2, human B1R receptor (hB1R) (Homo sapiens, UniProt P46663); assay: Functional investigation on the bradykinin 1 receptor (B1R), FLIPR Ca2+ assay, hB1R cells; assay type: cell-based; conditions: test substance 10 μM; CHO K1 cells transfected with human B1R gene; Fluo-4 Ca2+ signal; agonist Lys-Des-Arg9-bradykinin at EC80; % of maximum achievable inhibition; read-out: B1R antagonism, human [10 μM] % inhibition
T2 construct: expressed in transfected cells; host or cells: CHO K1 cells
T2 sequence (P46663 1-353): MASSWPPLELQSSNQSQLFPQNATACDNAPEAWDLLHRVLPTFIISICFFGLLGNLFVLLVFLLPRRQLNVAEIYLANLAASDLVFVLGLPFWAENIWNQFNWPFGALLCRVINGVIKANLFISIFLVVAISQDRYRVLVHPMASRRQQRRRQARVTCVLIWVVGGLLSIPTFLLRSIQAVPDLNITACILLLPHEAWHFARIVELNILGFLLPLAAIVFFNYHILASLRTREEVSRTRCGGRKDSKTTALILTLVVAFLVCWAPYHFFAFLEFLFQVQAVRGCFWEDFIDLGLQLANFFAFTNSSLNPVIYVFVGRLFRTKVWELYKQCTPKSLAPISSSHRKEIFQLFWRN
Summary of the method: as §1

Structure (SMILES)	inhibition at 10 µM [1]	inhibition at 10 µM [2]
COc1cc(C)c(S(=O)(=O)N2CCC[C@H]2CCCS(=O)(=O)N2[C@@H]3CC[C@H]2C[C@H](Oc2ccncc2)C3)c(C)c1 [Example 54, (1R,3R,5S)-8-(3-((S)-1-(4-Methoxy-2,6-dimethylphenylsulfonyl)pyrrolidin-2-yl)propylsulfonyl)-3-(pyridin-4-yloxy)-8-azabicyclo[3.2.1]octane]	98%	100%
Cc1cccc(Cl)c1S(=O)(=O)N1CCC[C@H]1CCCS(=O)(=O)N1[C@@H]2CC[C@H]1C[C@H](Oc1ccncc1)C2 [Example 55, (1R,3R,5S)-8-(3-((S)-1-(2-Chloro-6-methylphenylsulfonyl)pyrrolidin-2-yl)propylsulfonyl)-3-(pyridin-4-yloxy)-8-azabicyclo[3.2.1]octane]	98%	98%
O=S(=O)(CCC[C@@H]1CCCN1S(=O)(=O)c1ccccc1C(F)(F)F)N1[C@@H]2CC[C@H]1C[C@H](Oc1ccncc1)C2 [Example 56, (1R,3R,5S)-3-(Pyridin-4-yloxy)-8-(3-((S)-1-(2-(trifluoromethyl)phenylsulfonyl)pyrrolidin-2-yl)propylsulfonyl)-8-azabicyclo[3.2.1]octane]	99%	95%
O=S(=O)(CCC[C@@H]1CCCN1S(=O)(=O)c1ccc2ccccc2c1)N1[C@@H]2CC[C@H]1C[C@H](Oc1ccncc1)C2 [Example 57, (1R,3R,5S)-8-(3-((S)-1-(Naphthalen-2-ylsulfonyl)pyrrolidin-2-yl)propylsulfonyl)-3-(pyridin-4-yloxy)-8-azabicyclo[3.2.1]octane]	54%	25%
O=S(=O)(CCC[C@@H]1CCCN1S(=O)(=O)c1cccc2ccccc12)N1[C@@H]2CC[C@H]1C[C@H](Oc1ccncc1)C2 [Example 58, (1R,3R,5S)-8-(3-((S)-1-(Naphthalen-1-ylsulfonyl)pyrrolidin-2-yl)propylsulfonyl)-3-(pyridin-4-yloxy)-8-azabicyclo[3.2.1]octane]	94%	56%
O=S(=O)(CCC[C@@H]1CCCN1S(=O)(=O)c1ccc(Cl)cc1Cl)N1[C@@H]2CC[C@H]1C[C@H](Oc1ccncc1)C2 [Example 59, (1R,3R,5S)-8-(3-((S)-1-(2,4-Dichlorophenylsulfonyl)pyrrolidin-2-yl)propylsulfonyl)-3-(pyridin-4-yloxy)-8-azabicyclo[3.2.1]octane]	96%	94%
O=S(=O)(CCC[C@@H]1CCCN1S(=O)(=O)c1cccc(Cl)c1Cl)N1[C@@H]2CC[C@H]1C[C@H](Oc1ccncc1)C2 [Example 60, (1R,3R,5S)-8-(3-((S)-1-(2,3-Dichlorophenylsulfonyl)pyrrolidin-2-yl)propylsulfonyl)-3-(pyridin-4-yloxy)-8-azabicyclo[3.2.1]octane]	100%	89%
Cc1cc(S(=O)(=O)N2CCC[C@H]2CCCS(=O)(=O)N2[C@@H]3CC[C@H]2C[C@H](Oc2ccncc2)C3)c(C)cc1Cl [Example 61, (1R,3R,5S)-8-(3-((S)-1-(4-Chloro-2,5-dimethylphenylsulfonyl)pyrrolidin-2-yl)propylsulfonyl)-3-(pyridin-4-yloxy)-8-azabicyclo[3.2.1]octane]	97%	75%
COc1cc(C)c(S(=O)(=O)N2CCC[C@H]2CCCS(=O)(=O)N2CCC3(CCC(N4CC(F)(F)C4)CC3)CC2)c(C)c1 [Example 63, 9-(3,3-Difluoroazetidin-1-yl)-3-(3-((S)-1-(4-methoxy-2,6-dimethylphenylsulfonyl)pyrrolidin-2-yl)propylsulfonyl)-3-azaspiro[5.5]undecane]	102%	99%
COc1cc(C)c(S(=O)(=O)N2CCC[C@H]2CCCS(=O)(=O)N2CCC3(CCN(c4ccncc4)CC3)CC2)c(C)c1 [Example 64, 3-(3-((S)-1-(4-Methoxy-2,6-dimethylphenylsulfonyl)pyrrolidin-2-yl)propylsulfonyl)-9-(pyridin-4-yl)-3,9-diazaspiro[5.5]undecane]	99%	99%
Cc1cccc(Cl)c1S(=O)(=O)N1CCC[C@H]1CCCS(=O)(=O)N1CCC2(CCN(c3ccncc3)CC2)CC1 [Example 65, 3-(3-((S)-1-(2-Chloro-6-methylphenylsulfonyl)pyrrolidin-2-yl)propylsulfonyl)-9-(pyridin-4-yl)-3,9-diazaspiro[5.5]undecane]	97%	99%
COc1cc(C)c(S(=O)(=O)N2CCC[C@H]2CCCS(=O)(=O)N2CCC3(CCC(Oc4ccncc4)CC3)CC2)c(C)c1 [Example 66, 3-(3-((S)-1-(4-Methoxy-2,6-dimethylphenylsulfonyl)pyrrolidin-2-yl)propylsulfonyl)-9-(pyridin-4-yloxy)-3-azaspiro[5.5]undecane hydrochloride]	102%	100%
O=S(=O)(CCC[C@@H]1CCCN1S(=O)(=O)c1cccc2ccccc12)N1CCC2(CCN(c3ccncc3)CC2)CC1 [Example 67, 3-(3-((S)-1-(Naphthalen-1-ylsulfonyl)pyrrolidin-2-yl)propylsulfonyl)-9-(pyridin-4-yl)-3,9-diazaspiro[5.5]undecane hydrochloride]	97%	98%
O=S(=O)(CCC[C@@H]1CCCN1S(=O)(=O)c1ccccc1C(F)(F)F)N1CCC2(CCN(c3ccncc3)CC2)CC1 [Example 68, 3-(Pyridin-4-yl)-9-(3-((S)-1-(2-(trifluoromethyl)phenylsulfonyl)pyrrolidin-2-yl)propylsulfonyl)-3,9-diazaspiro[5.5]undecane hydrochloride]	96%	100%

Results, then the compound that gave them:

inhibition at 10 µM [1]	inhibition at 10 µM [2]	Structure (SMILES)
71%	58%	O=S(=O)(CCC[C@@H]1CCCN1S(=O)(=O)c1cccc2ccccc12)N1CCC(Oc2ccncc2)CC1 [Example 50, (S)-4-(1-(3-(1-(Naphthalen-1-ylsulfonyl)pyrrolidin-2-yl)propylsulfonyl)piperidin-4-yloxy)pyridine]
93%	74%	O=S(=O)(CCC[C@@H]1CCCN1S(=O)(=O)c1ccc(Cl)cc1Cl)N1CCC(Oc2ccncc2)CC1 [Example 51, (S)-4-(1-(3-(1-(2,4-Dichlorophenylsulfonyl)pyrrolidin-2-yl)propylsulfonyl)piperidin-4-yloxy)pyridine]
87%	71%	O=S(=O)(CCC[C@@H]1CCCN1S(=O)(=O)c1cccc(Cl)c1Cl)N1CCC(Oc2ccncc2)CC1 [Example 52, (S)-4-(1-(3-(1-(2,3-Dichlorophenylsulfonyl)pyrrolidin-2-yl)propylsulfonyl)piperidin-4-yloxy)pyridine]
86%	74%	Cc1cc(S(=O)(=O)N2CCC[C@H]2CCCS(=O)(=O)N2CCC(Oc3ccncc3)CC2)c(C)cc1Cl [Example 53, (S)-4-(1-(3-(1-(4-Chloro-2,5-dimethylphenylsulfonyl)pyrrolidin-2-yl)propylsulfonyl)piperidin-4-yloxy)pyridine]
104%	84%	Cc1cccc(Cl)c1S(=O)(=O)N1CCC[C@H]1CCCS(=O)(=O)N1CCC2(CCC(Oc3ccncc3)CC2)CC1 [Example 62, 3-(3-((S)-1-(2-Chloro-6-methylphenylsulfonyl)pyrrolidin-2-yl)propylsulfonyl)-9-(pyridin-4-yloxy)-3-azaspiro[5.5]undecane]
12%	33%	CC1(C)CCc2cc(S(=O)(=O)N3CCC[C@H]3CCCS(=O)(=O)N3CCC(Oc4ccncc4)CC3)ccc2O1 [Example 69, (S)-4-(1-(3-(1-(2,2-Dimethylchroman-6-ylsulfonyl)pyrrolidin-2-yl)propylsulfonyl)piperidin-4-yloxy)pyridine]
32%	26%	O=S(=O)(CCC[C@@H]1CCCN1S(=O)(=O)Cc1cccc(Cl)c1)N1CCC(Oc2ccncc2)CC1 [Example 70, (S)-4-(1-(3-(1-(3-Chlorobenzylsulfonyl)pyrrolidin-2-yl)propylsulfonyl)piperidin-4-yloxy)pyridine]
39%	30%	O=S(=O)(CCC[C@@H]1CCCN1S(=O)(=O)c1ccc(C(F)(F)F)cc1Cl)N1CCC(Oc2ccncc2)CC1 [Example 71, (S)-4-(1-(3-(1-(2-Chloro-4-(trifluoromethyl)phenylsulfonyl)pyrrolidin-2-yl)propylsulfonyl)piperidin-4-yloxy)pyridine]
